Experimental data taken from US9120791B2, “Indolizine compounds, a process for their preparation and pharmaceutical compositions containing them” (LES LABORATOIRES SERVIER, priority 2012, dated 2015).
Structures can show the parent of a compound that is named as a salt.

Assays:
[1] = test system: RS4;11 leukaemia tumour line; assay: In vitro cytotoxicity (Microculture Tetrazolium Assay, 48 hours); assay type: cell-based; details: Homo sapiens, RS4;11 cells, 48 hours exposure, MTT, concentration that inhibits cell viability by 50%, read-out: IC50 (nM) MTT RS4
Procedure: The cytotoxicity studies were carried out on the RS4;11 leukaemia tumour line.
The cells are distributed onto microplates and exposed to the test compounds for 48 hours.

[2] = molecular target: Bcl-2 protein (Homo sapiens (Human), UniProt P10415); assay: Inhibition of Bcl-2 by the fluorescence polarisation technique; assay type: binding; details: fluorescence polarisation test; concentration that inhibits fluorescence polarisation by 50%; read-out: IC50 (nM) Bcl-2 FP
Procedure: The fluorescence polarisation tests were carried out on microplates (384 wells). […] After incubation for 2 hours, the fluorescence polarisation is measured.

Sequence of Bcl-2 protein (P10415 whole entry): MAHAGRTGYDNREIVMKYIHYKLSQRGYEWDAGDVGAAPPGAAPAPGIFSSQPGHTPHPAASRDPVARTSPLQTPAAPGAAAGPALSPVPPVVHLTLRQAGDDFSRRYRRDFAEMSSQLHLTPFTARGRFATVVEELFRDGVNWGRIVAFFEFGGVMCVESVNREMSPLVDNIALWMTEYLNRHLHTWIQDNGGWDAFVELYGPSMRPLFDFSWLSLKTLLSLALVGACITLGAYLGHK

SMILES	IC50 [2]	IC50 [1]
O=C(c1cc(-c2cc(Cl)ccc2C(=O)N2Cc3ccccc3C[C@H]2CN2CCOCC2)n2c1CCCC2)N(c1ccc(O)cc1)c1ccsc1 [Example 85, 3-{5-Chloro-2-[((3S)-3-(4-morpholinylmethyl)-3,4-dihydro-2(1H)-isoquinolinyl)carbonyl]phenyl}-N-(4-hydroxyphenyl)-N-(3-thienyl)-5,6,7,8-tetrahydro-1-indolizine carboxamide hydrochloride]	41 nM	246 nM
Cl.[2H]C1([2H])Oc2cc(C(=O)N3Cc4ccccc4C[C@H]3CN3CCOCC3)c(-c3cc(C(=O)N(c4ccc(O)cc4)c4ccc(C)c(F)c4)c4n3CCCC4)cc2O1 [Example 51, N-(3-Fluoro-4-methylphenyl)-N-(4-hydroxyphenyl)-3-{2,2-dideuterio-6-[((3S)-3-(4-morpholinylmethyl)-3,4-dihydro-2(1H)-isoquinolinyl)carbonyl]-1,3-benzodioxol-5-yl}-5,6,7,8-tetrahydro-1-indolizine carboxamide hydrochloride]	32 nM	26 nM
Cn1ncc2cc(N(C(=O)c3cc(-c4cc5c(cc4C(=O)N4Cc6ccccc6C[C@H]4CN4CCOCC4)OCO5)n4c3CCCC4)c3ccc(O)cc3)ccc21 [Example 94, N-(4-Hydroxyphenyl)-N-(1-methyl-1H-indazol-5-yl)-3-(6-{[(3S)-3-(morpholin-4-ylmethyl)-3,4-dihydroisoquinolin-2(1H)-yl]carbonyl}-1,3-benzodioxol-5-yl)-5,6,7,8-tetrahydroindolizine-1-carboxamide hydrochloride]	3 nM	8.16 nM
CCN(CC)c1ccc(N(C(=O)c2cc(-c3cc(Cl)ccc3C(=O)N3Cc4ccccc4C[C@H]3CN3CCOCC3)n3c2CCCC3)c2ccc(O)cc2)cc1 [Example 28, 3-{5-Chloro-2-[((3S)-3-(4-morpholinylmethyl)-3,4-dihydro-2(1H)-isoquinolinyl)carbonyl]phenyl}-N-[4-(diethylamino)phenyl]-N-(4-hydroxyphenyl)-5,6,7,8-tetrahydro-1-indolizine carboxamide hydrochloride]	25 nM	76.1 nM
CN1CCc2cc(N(C(=O)c3cc(-c4cc5c(cc4C(=O)N4Cc6ccccc6C[C@H]4CN4CCOCC4)OCO5)n4c3COCC4)c3ccc(O)cc3)ccc21 [Example 81, N-(4-Hydroxyphenyl)-N-(1-methyl-2,3-dihydro-1H-indol-5-yl)-6-{6-[((3S)-3-(4-morpholinylmethyl)-3,4-dihydro-2(1H)-isoquinolinyl)carbonyl]-1,3-benzodioxol-5-yl}-3,4-dihydro-1H-pyrrolo[2,1-c][1,4]oxazine-8-carboxamide hydrochloride]	28 nM	39.3 nM
Cc1ccc(N(C(=O)c2cc(-c3cc(F)ccc3C(=O)N3Cc4ccccc4C[C@H]3CN3CCOCC3)n3c2CCCC3)c2ccc(O)cc2)cc1F [Example 91, N-(3-Fluoro-4-methylphenyl)-3-(5-fluoro-2-{[(3S)-3-(morpholin-4-ylmethyl)-3,4-dihydroisoquinolin-2(1H)-yl]carbonyl}phenyl)-N-(4-hydroxyphenyl)-5,6,7,8-tetrahydroindolizine-1-carboxamide hydrochloride]	8 nM	65.5 nM
CN1CCc2cc(N(C(=O)c3cc(-c4cc(Br)ccc4C(=O)N4Cc5ccccc5C[C@H]4CN4CCOCC4)n4c3CCCC4)c3ccc(O)cc3)ccc21 [Example 19, 3-{5-Bromo-2-[((3S)-3-(4-morpholinylmethyl)-3,4-dihydro-2(1H)-isoquinolinyl)carbonyl]phenyl}-N-(4-hydroxyphenyl)-N-(1-methyl-2,3-dihydro-1H-indol-5-yl)-5,6,7,8-tetrahydro-1-indolizine carboxamide hydrochloride]	27 nM	42.3 nM

More lines, main results first:

IC50 [2]	SMILES	IC50 [1]
34 nM	Cn1ccc2cc(N(C(=O)c3cc(-c4cc(Cl)ccc4C(=O)N4Cc5ccccc5C[C@H]4CN4CCOCC4)n4c3CCCC4)c3ccc(O)c(F)c3)ccc21 [Example 55, 3-{5-Chloro-2-[((3S)-3-(4-morpholinylmethyl)-3,4-dihydro-2(1H)-isoquinolinyl)carbonyl]phenyl}-N-(3-fluoro-4-hydroxyphenyl)-N-(1-methyl-1H-indol-5-yl)-5,6,7,8-tetrahydro-1-indolizine carboxamide hydrochloride]	19.4 nM
35 nM	O=C(c1cc(-c2cc(Cl)ccc2C(=O)N2Cc3ccccc3C[C@H]2CN2CCOCC2)n2c1CCCC2)N(c1ccc(O)cc1)c1ccc2c(c1)CCC2 [Example 29, 3-{5-Chloro-2-[((3S)-3-(4-morpholinylmethyl)-3,4-dihydro-2(1H)-isoquinolinyl)carbonyl]phenyl}-N-(2,3-dihydro-1H-inden-5-yl)-N-(4-hydroxyphenyl)-5,6,7,8-tetrahydro-1-indolizine carboxamide hydrochloride]	85.5 nM
9 nM	COCCN(C)C[C@@H]1Cc2ccccc2CN1C(=O)c1ccc(Cl)cc1-c1cc(C(=O)N(c2ccc(O)cc2)c2ccc3c(ccn3C)c2)c2n1CCCC2 [Example 108, 3-(5-Chloro-2-{[(3S)-3-{[(2-methoxyethyl)(methyl)amino]methyl}-3,4-dihydroisoquinolin-2(1H)-yl]carbonyl}phenyl)-N-(4-hydroxyphenyl)-N-(1-methyl-1H-indol-5-yl)-5,6,7,8-tetrahydroindolizine-1-carboxamide hydrochloride]	36.4 nM
14 nM	CN1CCN(C[C@@H]2Cc3ccccc3CN2C(=O)c2ccc(Cl)cc2-c2cc(C(=O)N(c3ccc(O)cc3)c3ccc4c(ccn4C)c3)c3ccccn23)CC1 [Example 65, 3-{5-Chloro-2-[((3S)-3-[(4-methyl-1-piperazinyl)methyl]-3,4-dihydro-2(1H)-isoquinolinyl)carbonyl]phenyl}-N-(4-hydroxyphenyl)-N-(1-methyl-1H-indol-5-yl)-1-indolizine carboxamide bis(hydrochloride)]	9.19 nM
18 nM	Cn1ccc2cc(N(C(=O)c3cc(-c4cc5c(cc4C(=O)N4Cc6ccccc6C[C@H]4CN4CCOCC4)OCO5)n4c3COCC4)c3ccc(O)cc3)ccc21 [Example 80, N-(4-Hydroxyphenyl)-N-(1-methyl-1H-indol-5-yl)-6-{6-[((3S)-3-(4-morpholinylmethyl)-3,4-dihydro-2(1H)-isoquinolinyl)carbonyl]-1,3-benzodioxol-5-yl}-3,4-dihydro-1H-pyrrolo[2,1-c][1,4]oxazine-8-carboxamide]	18.8 nM
5 nM	Cn1ncc2cc(N(C(=O)c3cc(-c4cc(Cl)ccc4C(=O)N4Cc5ccccc5C[C@H]4CN4CCOCC4)n4c3COCC4)c3ccc(O)cc3)ccc21 [Example 101, 6-(5-Chloro-2-{[(3S)-3-(morpholin-4-ylmethyl)-3,4-dihydroisoquinolin-2(1H)-yl]carbonyl}phenyl)-N-(4-hydroxyphenyl)-N-(1-methyl-1H-indazol-5-yl)-3,4-dihydro-1H-pyrrolo[2,1-c][1,4]oxazine-8-carboxamide hydrochloride]	22.1 nM
16 nM	Cn1ccc2cc(N(C(=O)c3cc(-c4cc5c(cc4C(=O)N4Cc6ccccc6C[C@H]4CN4CCCOCC4)OCO5)n4c3CCCC4)c3ccc(O)cc3)ccc21 [Example 14, N-(4-Hydroxyphenyl)-N-(1-methyl-1H-indol-5-yl)-3-{6-[((3S)-3-(1,4-oxazepan-4-ylmethyl)-3,4-dihydro-2(1H)-isoquinolinyl)carbonyl]-1,3-benzodioxol-5-yl}-5,6,7,8-tetrahydro-1-indolizine carboxamide hydrochloride]	10.7 nM
